This test deals with T1, fatty acid amide hydrolase (FAAH) (Rattus norvegicus, UniProt P97612).
T1 sequence (P97612 1-579): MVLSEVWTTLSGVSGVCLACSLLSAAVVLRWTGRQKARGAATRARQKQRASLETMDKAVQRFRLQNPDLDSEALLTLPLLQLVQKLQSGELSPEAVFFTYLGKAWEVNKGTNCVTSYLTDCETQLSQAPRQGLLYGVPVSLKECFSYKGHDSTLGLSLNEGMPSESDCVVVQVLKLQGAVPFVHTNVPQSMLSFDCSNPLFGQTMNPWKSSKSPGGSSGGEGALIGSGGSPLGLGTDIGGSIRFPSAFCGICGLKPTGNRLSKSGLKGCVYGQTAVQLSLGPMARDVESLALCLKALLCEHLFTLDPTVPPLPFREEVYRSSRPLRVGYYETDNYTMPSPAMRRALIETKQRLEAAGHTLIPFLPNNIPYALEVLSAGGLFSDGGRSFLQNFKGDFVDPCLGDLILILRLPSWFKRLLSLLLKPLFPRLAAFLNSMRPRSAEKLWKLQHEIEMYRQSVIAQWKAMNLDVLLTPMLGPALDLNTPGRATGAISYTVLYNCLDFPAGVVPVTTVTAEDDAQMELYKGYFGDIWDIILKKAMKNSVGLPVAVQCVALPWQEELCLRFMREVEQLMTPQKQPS
Description: Fatty acid amide hydrolase activity assay. It counts as biochemical, Sprague-Dawley rats. Conditions: hippocampus membranes.

Consider one compound from publication PMC2847038 (Hippocampus, 2010).

Turning to `CCCCC/C=C\C/C=C\C/C=C\C/C=C\CCCC(=O)NCCO` [anandamide, N-arachidonylethanolamide], the “Vmax (maximal hydrolytic activity of FAAH)” value (CON animals) is listed as 619.4 +/- 56.9 pmol/mg protein and the “Vmax (maximal hydrolytic activity of FAAH)” value (VEx animals) was 556.7 +/- 99.4 pmol/mg protein.
